test system: MCF-7 cells; experiment: In vitro cell proliferation assay (WST assay); format: cell-based; details: Homo sapiens, MCF7, 72 h, total incubation time 72 h, viable cells by WST-1 reagent
Method: In vitro Cell Proliferation Assay (WST Assay)
MCF-7 cells were seeded in 96-well plates at 3×10^3 cells/well in 100 μL of culture medium, 8 wells were left empty for media only controls.
After 24 h the compound titrations were performed, in a separate dilution plate, by serially diluting the compounds of general formula (I) in culture medium. A 100 μL of each dilution was added to the plated cells, this was done in triplicate, and controls (e.g. DMSO and blanks) were included. The plates were incubated for 24 h at 37° C. in a CO2 incubator. The compound titrations were repeated in a separate dilution plate after 24 h. The media plus compound from the assay plates were then aspirated. A 100 μL of media was then added to all wells, followed by 100 μL of each compound dilution. The plates were incubated for a further 48 h at 37° C. in a CO2 incubator (total incubation time 72 h). The number of viable cells was then assessed using Cell Proliferation Reagent WST-1. 10 μL of WST-1 reagent added to each well and incubated for one to four hours at 37° C. in CO2 incubator. The absorbance was measured (450 nm/690 nm).
The activity of compounds of general formula (I) in reducing the number of viable cells was calculated as:
% activity=[(S^c−B)/(S^o−B)]×100
S^c denotes signal measured in the presence of test compound, S^o denotes signal detected in the absence of compound, and B denotes background signal, measured in blank wells containing medium only. Analyse data using GraphPad Prism.

IC50 [nM] | SMILES
25.9 | Cc1ccc2c(c1C)NC(=O)C2(c1ccc(O)cc1)C1CCCCC1 (stereo not drawn) [Compound 1025, 3-cyclohexyl-3-(4-hydroxyphenyl)-6,7-dimethylindolin-2-one]
4 | Cc1ccc(C2(c3ccc(O)cc3)C(=O)Nc3c2ccc(F)c3F)cc1F (stereo not drawn) [Compound 1023, 6,7-difluoro-3-(3-fluor-4-methylphenyl)-3-(4-hydroxyphenyl)indolin-2-one]
3.4 | O=C1Nc2c(ccc(F)c2F)C1(c1ccc(O)cc1)C1CCCCCC1 (stereo not drawn) [Compound 1018, 3-cycloheptyl-6,7-difluoro-3-(4-hydroxyphenyl)indolin-2-one]
7.3 | O=C1Nc2c(ccc(F)c2F)C1(c1ccc(O)cc1)C1CCCCC1 (stereo not drawn) [Compound 1010, 3-cyclohexyl-6,7-difluoro-3-(4-hydroxyphenyl)indolin-2-one]
3.5 | Cc1ccc2c(c1Cl)NC(=O)C2(c1ccc(O)cc1)C1CCCCCC1 (stereo not drawn) [Compound 1053, 7-chloro-3-cycloheptyl-3-(4-hydroxyphenyl)-6-methylindolin-2-one]
6.8 | O=C1Nc2c(Br)cccc2C1(c1ccc(O)cc1)C1CCCCC1 (stereo not drawn) [Compound 1062, 7-bromo-3-cyclohexyl-3-(4-hydroxyphenyl)indolin-2-one]
12.6 | COc1ccc2c(c1C)NC(=O)C2(c1ccc(O)cc1)C1CCCCC1 (stereo not drawn) [Compound 1046, 3-cyclohexyl-3-(4-hydroxyphenyl)-6-methoxy-7-methylindolin-2-one]
5.2 | O=C1Nc2c(ccc(F)c2F)C1(c1ccc(O)cc1)c1ccc(F)c(F)c1 (stereo not drawn) [Compound 1022, 3-(3,4-difluorophenyl)-6,7-difluoro-3-(4-hydroxyphenyl)indolin-2-one]
19.1 | Cc1ccc2c(c1C)NC(=O)C2(c1ccc(O)cc1)C1CCCCCC1 (stereo not drawn) [Compound 1043, 3-cycloheptyl-3-(4-hydroxyphenyl)-6,7-dimethylindolin-2-one]
17.5 | O=C1Nc2c(C(F)(F)F)cccc2C1(c1ccc(O)cc1)C1CCCCC1 (stereo not drawn) [Compound 1021, 3-cyclohexyl-3-(4-hydroxyphenyl)-7-(trifluoromethyl)indolin-2-one]
4.7 | COc1ccc2c(c1C)NC(=O)C2(c1ccc(O)cc1)C1CCCCCC1 (stereo not drawn) [Compound 1087, 3-cycloheptyl-3-(4-hydroxyphenyl)-6-methoxy-7-methylindolin-2-one]
9.1 | Cc1ccc2c(c1F)NC(=O)C2(c1ccc(O)cc1)C1CCCCCC1 (stereo not drawn) [Compound 1034, 3-cycloheptyl-7-fluoro-3-(4-hydroxyphenyl)-6-methylindolin-2-one]
32.9 | Cc1cccc2c1NC(=O)C2(c1ccc(O)cc1)C1CCCCC1 (stereo not drawn) [Compound 1059, 3-cyclohexyl-3-(4-hydroxyphenyl)-7-methylindolin-2-one]
5.7 | Cc1c(F)ccc2c1NC(=O)C2(c1ccc(O)cc1)C1CCCCC1 (stereo not drawn) [Compound 1039, 3-cyclohexyl-6-fluoro-3-(4-hydroxyphenyl)-7-methylindolin-2-one]
10.5 | Cc1ccc2c(c1Br)NC(=O)C2(c1ccc(O)cc1)C1CCCCC1 (stereo not drawn) [Compound 1056, 7-bromo-3-cyclohexyl-3-(4-hydroxyphenyl)-6-methylindolin-2-one]
10 | COc1cc(C)c2c(c1)C(c1ccc(O)cc1)(C1CCCCC1)C(=O)N2 (stereo not drawn) [Compound 1070]
8.4 | O=C1Nc2c(ccc(F)c2F)C1(c1ccc(O)cc1)c1ccc(O)cc1 [Reference compound, 6,7-Difluoro-3,3-bis-(4-hydroxy-phenyl)-1,3-dihydro-indol-2-one, reference compound]
10.2 | O=C1Nc2c(ccc(F)c2F)C1(c1ccc(O)cc1)c1ccc2ccccc2c1 (stereo not drawn) [Compound 1033, 6,7-difluoro-3-(4-hydroxyphenyl)-3-(naphthalene-2-yl)indolin-2-one]
34.5 | O=C1Nc2c(ccc(F)c2F)C1(c1ccncc1)c1ccc(O)cc1 (stereo not drawn) [Compound 1006, 6,7-difluoro-3-(4-hydroxyphenyl)-3-(pyridin-4-yl)indolin-2-one]

same assay, conditions: total incubation time 72 h, viable cells by WST-1 reagent

IC50 [nM] | SMILES
3.9 | O=C1Nc2c(ccc(F)c2F)C1(c1ccc(O)cc1)C1CCCCC1 (single isomer, unassigned) [Compound 1027, 3-cyclohexyl-6,7-difluoro-3-(4-hydroxyphenyl)indolin-2-one]
> 500 | O=C1Nc2c(ccc(F)c2F)C1(c1ccc(O)cc1)C1CCCCC1 (single isomer, unassigned) [Compound 1028, 3-cyclohexyl-6,7-difluoro-3-(4-hydroxyphenyl)indolin-2-one]

— patent publication US20100227863A1, “SUBSTITUTED 3-(4-HYDROXYPHENYL)-INDOLIN-2-ONE COMPOUNDS” (TOPOTARGET A/S, priority 2007, published 2010)
